Reference: US20250002967A1, “METHODS FOR DETECTING MICROORGANISMS BY ADDING A FLUORESCENT DYE DIRECTLY TO THE SOLID GROWTH MEDIUM” (DIAMIDEX, priority 2021, published 2025)

Tests used:
[1] = test system: Escherichia coli ATCC® 8739™; assay: Enumeration of colonies using the method of the invention; assay type: cell-based; details: E. coli; TSA agar; 35° C.; microcolony count
[2] = test system: Aspergillus brasiliensis ATCC® 16404™; assay: as above; assay type: cell-based; details: A. brasiliensis; SDA agar; 35° C.; microcolony count
[3] = test system: Candida albicans ATCC® 10231™; assay: as above; assay type: cell-based; details: C. albicans; SDA agar; 35° C.; microcolony count
[4] = test system: S. aureus ATCC® 6538™; assay: Enumeration of bacteria implicated in uncomplicated and complicated UTI; assay type: cell-based, Staphylococcus aureus; details: black MCE membrane
[5] = test system: E. faecalis ATCC® 19433™; assay: as above; assay type: cell-based, Enterococcus faecalis; details: black MCE membrane
[6] = test system: P. mirabilis ATCC® 29906™; assay: as above; assay type: cell-based, Proteus mirabilis; details: black MCE membrane
[7] = test system: E. coli ATCC®8739™; assay: as above; assay type: cell-based, Escherichia coli; details: black MCE membrane; for Time detection (minimal timing necessary to enumerate microcolonies): 37° C.
[8] = test system: K. pneumoniae ATCC® 13883™; assay: as above; assay type: cell-based, Klebsiella pneumoniae; details: black MCE membrane; for Time detection (minimal timing necessary to enumerate microcolonies): 37° C.

Row | Structure (SMILES) | Counting Scan at 17 h on MCE membrane with fluorochrome [1] | Counting Scan at 17 h on PVDF membrane with fluorochrome [1] | Counting Scan at 17 h on MCE membrane with fluorochrome [2] | Counting Scan at 17 h on PVDF membrane with fluorochrome [2] | Counting Scan at 17 h on MCE membrane with fluorochrome [3] | Counting Scan at 17 h on PVDF membrane with fluorochrome [3] | also measured
1 | Cc1c(CC(=O)ON2C(=O)CCC2=O)c(=O)oc2cc(N)c(S(=O)(=O)O)cc12 [AF350-NHS Ester, 7-amino-3-[2-(2,5-dioxopyrrolidin-1-yl)oxy-2-oxoethyl]-4-methyl-2-oxochromene-6-sulfonic acid] | 109 | 107 | 25 | 19 | 9 | 20 | 
2 | CN(C)CCNc1ccc(O)c2c1C(=O)c1c(O)ccc(NCCN(C)C)c1C2=O [DRAQ5, 1,5-bis (2-(di-methylamino)ethylamino)-4,8-dihydroxyanthracene-9,10-dione] | 185 | 162 |  |  |  |  | 
3 | N=C(N)c1ccc(-c2cc3ccc(C(=N)N)cc3[nH]2)cc1 [DAPI, 4′,6-diamidino-2-phenylindole] |  |  |  |  |  |  | percentage of detected objects compared to standard procedure timing (24 h at 37° C.) ([4]; Columbia Blood): (100%); percentage of detected objects compared to standard procedure timing (24 h at 37° C.) ([4]; TSA): (100%); Time detection (minimal timing necessary to enumerate microcolonies) ([4]; TSA, 37° C.): 8 h; percentage of detected objects compared to standard procedure timing (24 h at 37° C.) ([5]; Columbia Blood): (100%); percentage of detected objects compared to standard procedure timing (24 h at 37° C.) ([5]; TSA): (100%); Time detection (minimal timing necessary to enumerate microcolonies) ([5]; TSA, 37° C.): 7 h; percentage of detected objects compared to standard procedure timing (24 h at 37° C.) ([6]; Columbia Blood): (94%); percentage of detected objects compared to standard procedure timing (24 h at 37° C.) ([6]; TSA): (98%); Time detection (minimal timing necessary to enumerate microcolonies) ([6]; TSA, 37° C.): 10 h; percentage of detected objects compared to standard procedure timing (24 h at 37° C.) ([7]; Columbia Blood): (100%); percentage of detected objects compared to standard procedure timing (24 h at 37° C.) ([7]; MacConkey): (98%); Time detection (minimal timing necessary to enumerate microcolonies) ([7]; MacConkey): 10 h; percentage of detected objects compared to standard procedure timing (24 h at 37° C.) ([7]; TSA): (100%); Time detection (minimal timing necessary to enumerate microcolonies) ([7]; TSA): 6 h; percentage of detected objects compared to standard procedure timing (24 h at 37° C.) ([8]; K. pneumonia, Columbia Blood): (100%); percentage of detected objects compared to standard procedure timing (24 h at 37° C.) ([8]; K. pneumonia, TSA): (100%); Time detection (minimal timing necessary to enumerate microcolonies) ([8]; K. pneumonia, Columbia Blood): 10 h; Time detection (minimal timing necessary to enumerate microcolonies) ([8]; K. pneumonia, TSA): 10 h; percentage of detected objects compared to standard procedure timing (24 h at 37° C.) ([8]; K. pneumoniae, MacConkey): (100%); Time detection (minimal timing necessary to enumerate microcolonies) ([8]; K. pneumoniae, MacConkey): 11 h
4 | CCC(=O)c1ccc2cc(N(C)C)ccc2c1 [Prodan, 6-propionyl-2-dimethyaminonaphthalene] | 118 | 126 |  | 6 | 11 | 17 | 
5 | CC[N+]1=C(C=CC=CC=C2N(CCCCCC(=O)O)c3ccc(S(=O)(=O)O)cc3C2(C)C)C(C)(C)c2cc(S(=O)(=O)[O-])ccc21 [Sulfo-Cy5-Acid] | 114 | 120 | 25 | 34 | 13 | 13 | 
6 | Cc1ccc2n1[B-](F)(F)[N+]1=C(CCCCCCCCCCCC(=O)O)C=CC1=C2 [BODIPY 500/510, 12-(2,2-difluoro-12-methyl-1-aza-3-azonia-2-boranuidatricyclo[7.3.0.03,7]dodeca-3,5,7,9,11-pentaen-4-yl)dodecanoic acid] |  | 112 |  |  |  |  | 
